Measured values reported in patent US5723464A, “Piperazine derivatives” (American Home Products Corporation, priority 1994, dated 1998).

Legend:
5-HT1A receptor [1] = molecular target: T1, 5-HT1A receptor (Rattus norvegicus, UniProt P19327); assay: 5-HT1A receptor binding affinity in rat hippocampal membrane homogenate; design: in rat hippocampal membrane homogenate; from tissue; host or cells: rat hippocampal membrane homogenate; settings: for IC50: rat hippocampal membrane homogenate; for Ratio 5HT1A / α1 (binding selectivity): ratio of 5-HT1A binding to α1 binding
T1 sequence (P19327 1-422): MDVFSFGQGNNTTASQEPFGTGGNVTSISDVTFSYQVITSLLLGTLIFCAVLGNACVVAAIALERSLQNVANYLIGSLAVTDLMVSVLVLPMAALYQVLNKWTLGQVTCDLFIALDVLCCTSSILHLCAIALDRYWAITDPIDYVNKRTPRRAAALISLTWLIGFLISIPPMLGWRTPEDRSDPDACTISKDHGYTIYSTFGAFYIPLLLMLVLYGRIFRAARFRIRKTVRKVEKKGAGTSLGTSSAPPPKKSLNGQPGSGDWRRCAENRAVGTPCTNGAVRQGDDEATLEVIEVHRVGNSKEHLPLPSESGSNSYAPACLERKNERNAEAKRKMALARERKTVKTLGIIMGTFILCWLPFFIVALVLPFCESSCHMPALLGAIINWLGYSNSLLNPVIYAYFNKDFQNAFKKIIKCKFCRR
Protocol: The compounds were tested for 5-HT1A binding affinity (column 2) in rat hippocampal membrane homogenate by the method of B. S. Alexander and M. D. Wood, J. Pharm. Pharmacol., 1988, 40, 888-891.

α1 receptor = α1 receptor binding affinity
Protocol: The compounds were tested for α1 binding affinity (column 3) by the procedure of A. L. Marrow et al, Mol. Pharmacol., 1986, 29, 321.

5-HT1A receptor [2] = molecular target: T1, 5-HT1A receptor; assay: Oral 5-HT1A receptor antagonist activity: antagonism of 8-OH-DPAT syndrome in rats; assay type: in vivo
Protocol: 5-HT1A receptor antagonist activity (columns 5 and 6) is assessed by the ability of the selective 5-HT1A receptor agonist, 8-OH-DPAT, to induce the `8-OH-DPAT syndrome` in rats characterised by extended flat body posture, forepaw treading and hyperlocomotion. The 8-OH-DPAT syndrome is scored as present (definite syndrome response) or absent (equivocal or no syndrome response) during the period 0-5 min following intravenous (i.v.) administration of the test agonist via a lateral tail vein.
A range of doses, on a logarithmic scale and encompassing the expected ED50, were chosen for the test agonist following preliminary evaluation. […]
Test antagonists were administered orally (p.o.) 60 min, before i.v. administration of 8-OH-DPAT. ED50 values for 8-OH-DPAT were determined for the different pretreatment groups using the sequential up/down procedure as described above.
The response to the selective 5-HT1A receptor agonist, 8-OH-DPAT, is represented as an ED50 value for induction of the 8-OH-DPAT syndrome, which is determined using the sequential up/down analysis following intravenous administration. 5-HT1A antagonist activity is determined by the ability of the test compound to antagonise the response to 8-OH-DPAT, i.e. to increase the ED50 for induction of the 8-OH-DPAT syndrome compared with vehicle pretreatment. […]

Row | SMILES | IC50 (5-HT1A receptor [1]) | Ratio 5HT1A / α1 (binding selectivity) (5-HT1A receptor [1]) | IC50 (α1 receptor) | 5-HT1A antagonist Ratio (ED50 antagonist @ 3mg/kg po)/ED50 vehicle (5-HT1A receptor [2]; ED50 of 8-OH-DPAT (i.v.) after test compound 3 mg/kg p.o. divided by ED50 after vehicle, rats) | 5-HT1A antagonist oral activity (in words) (5-HT1A receptor [2]; oral, compared to compounds of EP-A-512755) | 5-HT1A binding affinity (in words) (5-HT1A receptor [1]) | 5-HT1A/α1 selectivity (in words) (5-HT1A receptor [1]; binding affinity at 5-HT1A compared to α1 receptors)
1 | C[C@H](CN1CCN(c2cccc3[nH]ccc23)CC1)N(C(=O)C1CCCCC1)c1ccccn1 [Compound A1, (R)-N-(1-methyl-2-(4-indolyl-1-piperazinyl)ethyl)-N-(2-pyridyl)-cyclohexanecarboxamide] | 4.3 nM | 564.4 | – | – | – | – | –
2 | C[C@H](CN(C(=O)C1CCCCC1)c1ccccn1)N1CCN(c2cccc3[nH]ccc23)CC1 [Compound A2, (R)-N-(2-methyl-2-(4-indolyl-1-piperazinyl)ethyl)-N-(2-pyridyl)-cyclohexanecarboxamide] | 6.8 nM | 142.5 | – | – | – | – | –
3 | O=C(C1CCCCC1)N(CCN1CCN(c2cccc3[nH]ccc23)CC1)c1ccccn1 [Compound A3] | 3.2 nM | 317.5 | 1020 nM | 34.4 | surprising increase in oral activity as 5-HT1A antagonists | good 5-HT1A binding affinity | good
